{"source": "patent US20250084097A1", "about": "“MACROCYCLIC AMIDE COMPOUNDS AND APPLICATION THEREOF” (Medshine Discovery Inc., priority 2021, published 2025)", "key": {"[1]": {"tested_on": "Ba/F3-FL-EGFR (del19-T790M-C797S) cells", "test": "In vivo efficacy, Ba/F3-FL-EGFR-Del19-T790M-C797S cell homograft tumor model", "set-up": "species or system mouse", "details": "for Relative tumor proliferation rate T/C / Tumor growth inhibition rate TGI: Day 10", "procedure": "Ba/F3-FL-EGFR (del19-T790M-C797S) cell line was cultured in RPMI1640 medium (Viva Cell)+10% fetal bovine serum (Viva Cell)+1% double-antibody (Penicillin Streptomycin solution, Gibco, USA) at 37° C., 5% CO2, and passaged 2-3 times a week. When the cell saturation was 80%-90%, cells were collected, counted and inoculated. When the cells in the logarithmic growth phase reached the required number for the assay, the cells were collected, and centrifuged at 1000 rpm for 5 min to remove the supernatant. The cells were resuspended with medium, and counted using a cell counter. According to the counting results, the original solution was diluted into a cell suspension with a concentration of 1*10^7 viable cells/mL, and the cell viability was 98.77%, P17 generation. The diluted cell suspension and matrix gel were diluted in a 1:1 ratio. After mixing well and placing on ice, the suspension was aspirated with a 1 mL sterile insulin syringe, and each mouse was subcutaneously inoculated with 0.2 mL of cell suspension in the right axilla. That is, each mouse was inoculated with 1*10^6 Ba/F3-FL-EGFR (del19-T790M-C797S) cells.\nAfter the inoculation was completed, the tumor growth status was observed daily. When the average tumor volume reached approximately 100˜150 mm^3, the mice were randomly divided into groups according to tumor volume.\nDosage according to mouse body weight: 10 μL/g. If the body weight decreases by more than 20%, the dosing regimen was adjusted accordingly.\nThe formulation and any modifications of this assay protocol were evaluated and approved by the Laboratory Animal Welfare Ethics Committee of the testing institution. The health status and death of animals were checked every day. Routine inspections included tumor growth, activity, diet, body weight, eyes, hair and other abnormal behaviors of animals. Tumor volume and body weight were measured three times a week (Monday, Wednesday and Friday). The tumor volume was measured with a vernier caliper, and the formula was TV=0.5 a×b^2, where a is the long diameter of a tumor and b is the short diameter of a tumor.\nStatistical analysis included the mean (Mean) and standard error (SEM) of tumor volume at each time point for each group. Statistical analysis was performed to evaluate differences between groups based on the data on the 10th day after administration. One way ANOVA post hoc test and Tamhane test were used to compare whether there was a significant difference in tumor volume between the treatment group and the control group. p<0.05 meaned a significant difference. Drug efficacy evaluation indicators included tumor volume and tumor weight to examine whether tumor growth was delayed, inhibited or cured. The anti-tumor efficacy of compounds was evaluated using the relative tumor proliferation rate T/C (%) or the tumor growth inhibition rate TGI (%). […] In principle, the evaluation criteria were: T/C (%) >40% or TGI (%) <40% represents ineffective; T/C (%)≤40% and p<0.05, or TGI (%)≥40% and p<0.05 represents effective."}, "[2]": {"molecular_target": "Ba/F3-FL-EGFR (del19-E746-A750/C797S) (Homo sapiens, UniProt P00533, DEL746-750/C797S, cells depend on it)", "sequence (P00533 with tags, fused parts or gaps DEL746-750/C797S)": "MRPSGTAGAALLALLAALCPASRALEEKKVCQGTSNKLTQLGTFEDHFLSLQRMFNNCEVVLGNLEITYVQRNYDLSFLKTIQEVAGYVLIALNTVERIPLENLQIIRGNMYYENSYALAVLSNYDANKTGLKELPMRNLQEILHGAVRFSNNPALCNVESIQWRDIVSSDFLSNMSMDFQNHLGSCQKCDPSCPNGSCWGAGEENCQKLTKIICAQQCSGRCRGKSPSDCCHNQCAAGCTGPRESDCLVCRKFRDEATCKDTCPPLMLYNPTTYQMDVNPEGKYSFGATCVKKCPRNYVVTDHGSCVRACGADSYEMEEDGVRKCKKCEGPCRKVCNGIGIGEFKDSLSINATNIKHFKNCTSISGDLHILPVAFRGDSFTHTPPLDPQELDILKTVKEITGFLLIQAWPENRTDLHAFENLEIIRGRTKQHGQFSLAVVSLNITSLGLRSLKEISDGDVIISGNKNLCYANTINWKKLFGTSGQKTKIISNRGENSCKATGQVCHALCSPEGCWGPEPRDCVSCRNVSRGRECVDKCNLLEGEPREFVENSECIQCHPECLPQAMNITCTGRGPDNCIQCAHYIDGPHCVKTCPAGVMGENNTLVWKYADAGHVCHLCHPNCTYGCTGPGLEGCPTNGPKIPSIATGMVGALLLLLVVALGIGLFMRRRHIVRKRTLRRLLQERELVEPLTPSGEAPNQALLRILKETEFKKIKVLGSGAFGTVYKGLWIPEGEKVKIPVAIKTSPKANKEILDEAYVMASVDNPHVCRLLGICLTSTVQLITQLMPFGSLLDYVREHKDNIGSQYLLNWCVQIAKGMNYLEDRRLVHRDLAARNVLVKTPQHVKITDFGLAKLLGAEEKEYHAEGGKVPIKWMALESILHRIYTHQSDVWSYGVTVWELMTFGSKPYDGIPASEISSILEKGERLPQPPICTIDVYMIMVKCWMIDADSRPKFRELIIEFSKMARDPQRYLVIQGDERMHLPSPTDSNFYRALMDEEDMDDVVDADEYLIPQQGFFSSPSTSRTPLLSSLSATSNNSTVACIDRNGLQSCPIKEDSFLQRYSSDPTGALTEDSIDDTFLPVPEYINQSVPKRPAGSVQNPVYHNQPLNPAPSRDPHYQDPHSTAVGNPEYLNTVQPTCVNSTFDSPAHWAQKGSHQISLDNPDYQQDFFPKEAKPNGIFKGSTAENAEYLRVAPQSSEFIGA", "test": "Cell proliferation inhibition, CellTiter-Glo", "format": "cell-based", "details": "72 hours, read-out: Cell half-maximal inhibition concentration IC50 Ba/F3-FL-EGFR (del19-E746-A750/C797S)", "procedure": "AdenosineTri-Phosphate (ATP) is an energy carrier shared by various life activities in nature, and is the smallest unit of energy storage and transfer. The CellTiter-Glo™ living cell assay kit uses luciferase as a detector, and luciferase requires the participation of ATP in the process of luminescence. CellTiter-Glo™ reagent is added to a cell culture medium, and the luminescence value is measured. The light signal is directly proportional to the amount of ATP in the system, and ATP is positively correlated with the number of living cells. Therefore, cell proliferation can be detected by detecting ATP content with the CellTiter-Glo kit. In this assay, the cell lines were Ba/F3-FL-EGFR (L858R/T790M/C797S), Ba/F3-FL-EGFR (WT), Ba/F3-FL-EGFR (L858R), Ba/F3-FL-EGFR (del19-S752-I759), Ba/F3-FL-EGFR (del19-E746-A750/T790M/C797S), Ba/F3-FL-EGFR (L858R/T790M), Ba/F3-FL-EGFR (del19-E746-A750/T790M), Ba/F3-TEL-EGFR (L858R/C797S), Ba/F3-FL-EGFR (del19-E746-A750/C797S) stably transfected cell lines.\nThe cell lines were cultured in an incubator at 37° C. and 5% CO2. The cells were periodically passaged, and cells in logarithmic growth phase were taken for plating.\na) DMSO was used to prepare a 10 mM solution of the compound to be tested, and then the compound to be tested was diluted to 0.3 or 1 mM with DMSO.\nb) Preparation of 1000× compound storage plate (tube): DMSO was used to dilute by 3-fold gradient from the highest concentration to the lowest concentration, with a total of 9 concentrations.\nc) Preparation of 20× compound working solution: 49 μL of cell culture medium was added to a flat-bottomed 96-well transparent drug plate, and 1 μL of compound was pipetted from the 1000× compound storage plate to the cell culture medium of the 96-well transparent drug plate. 1 μL of DMSO was added to the vehicle control. After adding compound or DMSO, the well content was mixed to uniform by aspiration and expelling with pipette.\na) Cells were stained with trypan blue and viable cells were counted. The cell viability rate was required to be above 90%.\nb) 95 μL of cell suspension (2000 cells/well) was added to each well of the compound detection cell plate, and culture medium without cells (containing 0.1% DMSO) was added to the Min control well.\nc) Dosing in the compound detection cell plate: 5 μL of 20× compound working solution was added to the cell culture plate. 5 μL of DMSO-cell culture mixture was added to the Max control. The final concentration of DMSO was 0.1%.\nd) The culture plate was incubated in an incubator at 37° C., 5% CO2 for 72 hours.\nCell proliferation inhibition rate (Inhibition Rate) data were processed using the following formula:\nInhibition Rate (Inh %)=100−(RLUDrug−RLUMin)/(RLUMax−RLUMin)*100%.\nThe inhibition rates corresponding to different concentrations of compounds were calculated, and then GraphPad Prism software was used to draw the inhibition rate curve and the IC50 value was calculated."}, "[3]": {"details": "10 mg/kg/bid, day 0 after administration"}, "[4]": {"details": "10 mg/kg/bid, day 3 after administration"}, "[5]": {"details": "10 mg/kg/bid, day 5 after administration"}, "[6]": {"details": "10 mg/kg/bid, day 7 after administration"}, "[7]": {"details": "10 mg/kg/bid, day 10 after administration"}, "[8]": {"details": "25 mg/kg/bid, day 0 after administration"}, "[9]": {"details": "25 mg/kg/bid, day 3 after administration"}, "[10]": {"details": "25 mg/kg/bid, day 5 after administration"}, "[11]": {"details": "25 mg/kg/bid, day 7 after administration"}, "[12]": {"details": "25 mg/kg/bid, day 10 after administration"}}, "data": [{"smiles": "Cc1cc2cc(n1)-c1cnn(C)c1OC[C@H]1CC[C@H](C1)CN1/C(=N/C2=O)Nc2ccc(N=S(C)(C)=O)cc21", "note": "(single isomer, unassigned) [WX-027A]", "values": [{"measurement": "Relative tumor proliferation rate T/C", "setting": "[1]; 10 mg/kg/bid", "value": 14, "unit": "%"}, {"measurement": "Tumor growth inhibition rate TGI", "setting": "[1]; 10 mg/kg/bid", "value": 94, "unit": "%"}, {"measurement": "Average tumor volume", "setting": "[1]; [3]", "value": 113, "unit": "mm^3"}, {"measurement": "Average tumor volume", "setting": "[1]; [4]", "value": 123, "unit": "mm^3"}, {"measurement": "Average tumor volume", "setting": "[1]; [5]", "value": 111, "unit": "mm^3"}, {"measurement": "Average tumor volume", "setting": "[1]; [6]", "value": 183, "unit": "mm^3"}, {"measurement": "Average tumor volume", "setting": "[1]; [7]", "value": 179, "unit": "mm^3"}, {"measurement": "Relative tumor proliferation rate T/C", "setting": "[1]; 25 mg/kg/bid", "value": 7, "unit": "%"}, {"measurement": "Tumor growth inhibition rate TGI", "setting": "[1]; 25 mg/kg/bid", "value": 102, "unit": "%"}, {"measurement": "Average tumor volume", "setting": "[1]; [8]", "value": 112, "unit": "mm^3"}, {"measurement": "Average tumor volume", "setting": "[1]; [9]", "value": 105, "unit": "mm^3"}, {"measurement": "Average tumor volume", "setting": "[1]; [10]", "value": 96, "unit": "mm^3"}, {"measurement": "Average tumor volume", "setting": "[1]; [11]", "value": 108, "unit": "mm^3"}, {"measurement": "Average tumor volume", "setting": "[1]; [12]", "value": 86, "unit": "mm^3"}, {"measurement": "GI50", "setting": "[2]", "value": 4.7, "unit": "nM"}]}, {"smiles": "Cc1cc2cc(n1)-c1cnn(C)c1OCCC[C@@H](C)CN1/C(=N/C2=O)Nc2ccc(N=S(C)(C)=O)c(Cl)c21", "note": "[WX-019]", "values": [{"measurement": "Relative tumor proliferation rate T/C", "setting": "[1]; 10 mg/kg/bid", "value": 8, "unit": "%"}, {"measurement": "Tumor growth inhibition rate TGI", "setting": "[1]; 10 mg/kg/bid", "value": 101, "unit": "%"}, {"measurement": "Average tumor volume", "setting": "[1]; [3]", "value": 113, "unit": "mm^3"}, {"measurement": "Average tumor volume", "setting": "[1]; [4]", "value": 133, "unit": "mm^3"}, {"measurement": "Average tumor volume", "setting": "[1]; [5]", "value": 140, "unit": "mm^3"}, {"measurement": "Average tumor volume", "setting": "[1]; [6]", "value": 148, "unit": "mm^3"}, {"measurement": "Average tumor volume", "setting": "[1]; [7]", "value": 106, "unit": "mm^3"}, {"measurement": "Relative tumor proliferation rate T/C", "setting": "[1]; 25 mg/kg/bid", "value": 7, "unit": "%"}, {"measurement": "Tumor growth inhibition rate TGI", "setting": "[1]; 25 mg/kg/bid", "value": 103, "unit": "%"}, {"measurement": "Average tumor volume", "setting": "[1]; [8]", "value": 113, "unit": "mm^3"}, {"measurement": "Average tumor volume", "setting": "[1]; [9]", "value": 120, "unit": "mm^3"}, {"measurement": "Average tumor volume", "setting": "[1]; [10]", "value": 94, "unit": "mm^3"}, {"measurement": "Average tumor volume", "setting": "[1]; [11]", "value": 130, "unit": "mm^3"}, {"measurement": "Average tumor volume", "setting": "[1]; [12]", "value": 82, "unit": "mm^3"}, {"measurement": "GI50", "setting": "[2]", "value": 6.5, "unit": "nM"}]}]}
